Test [1] concerns the target T1, PI3K α (Homo sapiens, UniProt P42336).
T1 construct: purchased Upstate
The test is described as follows: PI3K α kinase inhibition assay. The class given is biochemical.

Test [2] relates to xenograft tumors. The test can be described thus: Tumor volume of xenograft tumors in female nude athymic mice. The class given is in vivo, mouse. Conditions: U87-MG, A549, ZR-75-1, or 786-0 tumor cells. The procedure: For example, treatment with one or more compounds of the invention results in a reduction in the growth or tumor volume caused by engraftment of U87-MG, A549, ZR-75-1, or 786-0 tumor cells in nude mice. The compounds of the invention may be administered orally, subcutaneously, or intravenously, or any other compound administration methods provided herein. In some cases, the compounds are administered once a week, every other day, once a day, twice a day, three times a day, four times a day or more. In some cases, 0.01 mg/kg of compound is administered, 0.05 mg/kg, 0.1 mg/kg, 0.2 mg/kg, 0.4 mg/kg, 0.5 mg/kg, 1 mg/kg, 1.5 mg/kg, 2 mg/kg, 3 mg/kg, 4 mg/kg, 5 mg/kg, 7.5 mg/kg, 10 mg/kg, 100 mg/kg or more compound is administered at a time. In some cases, a significant reduction in tumor volume may be detected within 5, 10, 15, 20, 25, or 30 days of tumor engraftment.
Mice are inoculated subcutaneously in the right flank with 0.01 to 0.5 ml of tumor cells such as those listed above (approximately 1.0×10^5 to 1.0×10^8 cells/mouse). Five to 10 days following inoculation, tumors are measured using calipers and tumor weight is calculated, for example using the animal study management software, such as Study Director V.1.6.70 (Study Log). […] Body weights are recorded when the mice are pair-matched. […]

The subject of test [3] is HCT116 cells or SW620 cells. The test can be described thus: Cell cycle progression, G0/G1 arrest. The class given is cell-based. The note with it: compared to an inhibitor that inhibits one or more PI3-kinases. The procedure: FIG. 9A-9B depict the effects of a compound of Table 1 of the present invention on cell cycle progression in HCT116 and SW620 cells as compared to various other compounds. FIG. 9A depicts the inhibiting effect of the compound at 500 nM on cell cycle progression as compared to DMSO vehicle control and as compared to 10 uM doxorubicin. FIG. 9B depicts the effect of the indicated compounds on the population of cells residing in G0/G1 phase during culture for two different cell lines.
In some embodiments, one or more compounds of the invention including those in Table 1 may cause cell cycle arrest. […] In some cases, about 35%, 40%, 50%, 55%, 60%, 65%, 70% or more of cells treated with one or more compounds of the invention may be in the G0/G1 cell cycle stage.

T1 sequence (P42336 whole entry): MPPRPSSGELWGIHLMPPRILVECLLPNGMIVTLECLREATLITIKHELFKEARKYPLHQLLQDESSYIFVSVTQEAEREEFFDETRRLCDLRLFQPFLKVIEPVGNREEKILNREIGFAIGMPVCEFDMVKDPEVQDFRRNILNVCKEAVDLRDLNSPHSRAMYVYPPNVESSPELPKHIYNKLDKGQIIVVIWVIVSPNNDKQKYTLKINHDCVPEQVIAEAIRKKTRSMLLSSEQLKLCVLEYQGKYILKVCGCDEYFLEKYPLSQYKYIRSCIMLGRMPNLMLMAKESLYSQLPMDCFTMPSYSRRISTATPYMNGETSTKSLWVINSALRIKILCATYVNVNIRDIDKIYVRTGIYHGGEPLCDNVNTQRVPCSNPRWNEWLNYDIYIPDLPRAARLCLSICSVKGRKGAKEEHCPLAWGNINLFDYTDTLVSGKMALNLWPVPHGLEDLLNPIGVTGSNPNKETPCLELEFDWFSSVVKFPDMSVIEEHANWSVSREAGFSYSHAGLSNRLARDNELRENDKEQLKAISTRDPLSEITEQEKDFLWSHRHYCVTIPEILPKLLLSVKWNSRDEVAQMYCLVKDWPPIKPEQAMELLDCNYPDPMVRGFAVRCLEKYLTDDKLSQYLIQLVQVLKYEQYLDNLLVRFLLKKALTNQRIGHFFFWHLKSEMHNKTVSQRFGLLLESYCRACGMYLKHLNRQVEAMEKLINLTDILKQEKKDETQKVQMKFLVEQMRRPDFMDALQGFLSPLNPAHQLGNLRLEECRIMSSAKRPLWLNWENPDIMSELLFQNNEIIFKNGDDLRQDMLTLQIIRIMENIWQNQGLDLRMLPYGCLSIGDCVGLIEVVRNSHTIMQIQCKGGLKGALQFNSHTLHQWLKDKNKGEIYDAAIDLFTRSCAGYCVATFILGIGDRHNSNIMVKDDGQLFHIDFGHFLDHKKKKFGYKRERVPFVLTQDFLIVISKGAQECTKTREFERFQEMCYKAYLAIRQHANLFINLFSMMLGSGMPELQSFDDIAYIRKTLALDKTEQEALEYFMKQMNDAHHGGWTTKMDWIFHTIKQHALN
T1 sequence (P27986 whole entry partner): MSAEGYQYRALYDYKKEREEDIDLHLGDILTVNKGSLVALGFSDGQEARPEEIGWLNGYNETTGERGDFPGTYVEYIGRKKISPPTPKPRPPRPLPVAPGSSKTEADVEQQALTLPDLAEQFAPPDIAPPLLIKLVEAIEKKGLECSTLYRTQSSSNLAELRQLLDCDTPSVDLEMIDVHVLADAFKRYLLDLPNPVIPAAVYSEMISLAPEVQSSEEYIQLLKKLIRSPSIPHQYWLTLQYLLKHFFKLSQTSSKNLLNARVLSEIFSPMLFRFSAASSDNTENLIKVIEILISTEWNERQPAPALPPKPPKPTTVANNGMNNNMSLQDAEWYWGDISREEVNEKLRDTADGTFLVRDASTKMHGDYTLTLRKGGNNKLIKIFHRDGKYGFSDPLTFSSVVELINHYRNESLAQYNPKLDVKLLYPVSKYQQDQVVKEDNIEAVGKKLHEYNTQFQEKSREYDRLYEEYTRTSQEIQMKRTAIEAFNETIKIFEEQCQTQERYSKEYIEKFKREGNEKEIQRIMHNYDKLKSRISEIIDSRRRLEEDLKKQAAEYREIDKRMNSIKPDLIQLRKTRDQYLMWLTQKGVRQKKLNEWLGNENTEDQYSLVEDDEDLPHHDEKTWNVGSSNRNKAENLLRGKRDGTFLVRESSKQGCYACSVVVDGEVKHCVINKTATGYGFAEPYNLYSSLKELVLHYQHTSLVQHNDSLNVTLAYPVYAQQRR

The IC50 is the point on the concentration scale where inhibition reaches its midpoint. Lower therefore signals higher potency. On to `COC(=O)Nc1noc2cc(-c3nn(C(C)C)c4ncnc(N)c34)ccc12` [compound 20], for which, in test [1], the 50% inhibitory concentration (IC50) was less than 10 µM.
Same read-out and setting: the same measure for `COC(=O)Nc1noc2ccc(-c3nn(C(C)C)c4ncnc(N)c34)cc12` [compound 19]: greater than 10 µM.
On to `CC(C)n1nc(-c2ccc3oc(N)nc3c2)c2c(N)ncnc21` [compound 1], for which the “tumor volume of xenograft tumors” value in test [2] was “cause a reduction in tumor volume of xenograft tumors”. The “degree of G0/G1 arrest” value in test [3] is reported as “comparable or a greater degree of G0/G1 arrest”.

The values above are taken from patent US9345706B2, “Benzoxazole kinase inhibitors and methods of use” (Intellikine LLC, priority 2008, dated 2016).
